Test results as given in patent US12077503B2, “Substituted cyclic amides and their use as herbicides” (FMC CORPORATION, priority 2015, dated 2024).

How the values were obtained:
Type in all cases: in vivo
[1] = system: wheat (Triticum aestivum); experiment: Test A postemergence; settings: Triticum aestivum, post-emergence, 240 h, postemergence
Outline: (§1)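 In a loam soil and sand blend, planted seeds got a preemergence directed soil spray, and young plants at the one- to two-leaf stage, 2–10 cm high, got a postemergence application; ~10 d greenhouse hold; injury rated visually, 0 = none, 100 = complete control.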

Kochia (Kochia scoparia) [2] = experiment: Test A postemergence; settings: Bassia scoparia, post-emergence, 240 h, postemergence, read-out: Kochia plant response rating
Outline: as §1

[3] = system: ryegrass, Italian (Italian ryegrass, Lolium multiflorum); experiment: Test A postemergence; settings: Lolium multiflorum, post-emergence, 240 h, postemergence
Outline: as §1

[4] = system: barnyardgrass (Echinochloa crus-galli); experiment: Test A postemergence; settings: Echinochloa crus-galli, post-emergence, 240 h, postemergence, read-out: Barnyardgrass plant response rating
Outline: as §1

[5] = system: ragweed (common ragweed, Ambrosia elatior); experiment: Test A postemergence; settings: Ambrosia artemisiifolia, post-emergence, 240 h, postemergence
Outline: as §1

[6] = system: Galium (catchweed bedstraw, Galium aparine); experiment: Test A postemergence; settings: Galium, post-emergence, 240 h, postemergence, read-out: Galium plant response rating
Outline: as §1

corn (Zea mays) = experiment: Test A postemergence; settings: Zea mays, post-emergence, 240 h, postemergence, read-out: Corn plant response rating
Outline: as §1

[7] = system: blackgrass (Alopecurus myosuroides); experiment: Test A postemergence; settings: Alopecurus myosuroides, post-emergence, 240 h, postemergence, read-out: Blackgrass plant response rating
Outline: as §1

[8] = system: giant foxtail (Setaria faberii); experiment: Test A postemergence; settings: Setaria faberi, post-emergence, 240 h, postemergence, read-out: Foxtail, Giant plant response rating
Outline: as §1

Kochia (Kochia scoparia) [9] = experiment: Test A preemergence; settings: Bassia scoparia, pre-emergence, 240 h, preemergence, 0 to 100 scale where 0 is no effect and 100 is complete control, read-out: Kochia plant response rating
Outline: as §1

[10] = system: pigweed (Amaranthus retroflexus); experiment: Test A preemergence; settings: Amaranthus retroflexus, pre-emergence, 240 h, preemergence, 0 to 100 scale where 0 is no effect and 100 is complete control, read-out: Pigweed plant response rating
[11] = system: ryegrass, Italian (Italian ryegrass, Lolium multiflorum); experiment: Test A preemergence; settings: Lolium multiflorum, pre-emergence, 240 h, preemergence, 0 to 100 scale where 0 is no effect and 100 is complete control, read-out: Ryegrass, Italian plant response rating
Outline: as §1

[12] = system: barnyardgrass (Echinochloa crus-galli); experiment: Test A preemergence; settings: Echinochloa crus-galli, pre-emergence, 240 h, preemergence, 0 to 100 scale where 0 is no effect and 100 is complete control, read-out: Barnyardgrass plant response rating
Outline: as §1

[13] = system: ragweed (common ragweed, Ambrosia elatior); experiment: Test A preemergence; settings: Ambrosia artemisiifolia, pre-emergence, 240 h, preemergence, 0 to 100 scale where 0 is no effect and 100 is complete control, read-out: Ragweed plant response rating
Outline: as §1

[14] = system: giant foxtail (Setaria faberii); experiment: Test A preemergence; settings: Setaria faberi, pre-emergence, 240 h, preemergence, 0 to 100 scale where 0 is no effect and 100 is complete control, read-out: Foxtail, Giant plant response rating
Outline: as §1

[15] = 125 g ai/ha, visual injury on 0 to 100 scale (0 no effect, 100 complete control), approx. 10 d
[16] = 500 g ai/ha, 0 to 100 scale, 0 is no effect, 100 is complete control

Compound: CN1C[C@H](c2ccc(C(F)(F)F)cc2)[C@](F)(C(=O)Nc2cccc(F)c2F)C1=O (racemic) [Compound 1152]
- plant injury at 125 g/ha ([1]; 125 g ai/ha, visual injury vs untreated controls after approx. 10 d, 0 = no effect, 100 = complete control, read-out: Wheat plant response rating (0 to 100 scale)): 0%
- plant injury at 500 g/ha ([1]; 500 g ai/ha, 0 to 100 scale, 0 is no effect, 100 is complete control, read-out: Wheat plant response rating): 0%
- pest or weed control at 125 g/ha (Kochia (Kochia scoparia) [2]; [15]): 0%
- pest or weed control at 500 g/ha (Kochia (Kochia scoparia) [2]; [16]): 0%
- pest or weed control at 125 g/ha ([3]; 125 g ai/ha, visual injury vs untreated controls after approx. 10 d, 0 = no effect, 100 = complete control, read-out: Ryegrass, Italian plant response rating (0 to 100 scale)): 0%
- pest or weed control at 500 g/ha ([3]; 500 g ai/ha, 0 to 100 scale, 0 is no effect, 100 is complete control, read-out: Ryegrass, Italian plant response rating): 0%
- pest or weed control at 125 g/ha [4, 15]: 0%
- pest or weed control at 500 g/ha [4, 16]: 0%
- pest or weed control at 125 g/ha ([5]; 125 g ai/ha, visual injury vs untreated controls after approx. 10 d, 0 = no effect, 100 = complete control, read-out: Ragweed plant response rating (0 to 100 scale)): 0%
- pest or weed control at 500 g/ha ([5]; 500 g ai/ha, 0 to 100 scale, 0 is no effect, 100 is complete control, read-out: Ragweed plant response rating): 0%
- pest or weed control at 125 g/ha [6, 15]: 0%
- pest or weed control at 500 g/ha [6, 16]: 20%
- plant injury at 125 g/ha (corn (Zea mays); [15]): 0%
- plant injury at 500 g/ha (corn (Zea mays); [16]): 0%
- pest or weed control at 125 g/ha [7, 15]: 0%
- pest or weed control at 500 g/ha [7, 16]: 0%
- pest or weed control at 125 g/ha [8, 15]: 20%
- pest or weed control at 500 g/ha [8, 16]: 40%
- pest or weed control at 125 g/ha (Kochia (Kochia scoparia) [9]; 125 g ai/ha, approx. 10 d): 0%
- pest or weed control at 500 g/ha (Kochia (Kochia scoparia) [9]; 500 g ai/ha): 0%
- pest or weed control at 125 g/ha ([10]; 125 g ai/ha, approx. 10 d): 60%
- pest or weed control at 500 g/ha ([10]; 500 g ai/ha): 80%
- pest or weed control at 125 g/ha ([11]; 125 g ai/ha, approx. 10 d): 0%
- pest or weed control at 500 g/ha ([11]; 500 g ai/ha): 20%
- pest or weed control at 125 g/ha ([12]; 125 g ai/ha, approx. 10 d): 20%
- pest or weed control at 500 g/ha ([12]; 500 g ai/ha): 90%
- pest or weed control at 125 g/ha ([13]; 125 g ai/ha, approx. 10 d): 0%
- pest or weed control at 500 g/ha ([13]; 500 g ai/ha): 0%
- pest or weed control at 125 g/ha ([14]; 125 g ai/ha, approx. 10 d): 70%
- pest or weed control at 500 g/ha ([14]; 500 g ai/ha): 90%
